US20060069136A1, “Use of Epothilones in the treatment of bone metastasis” (priority 2004, published 2006)
Values joined by “and” are separate entries in the source; they are usually repeats but may differ in a detail not shown here. Equal values may be shown once.

Columns and labels:
[1] = tested on: Human breast cancer MDA MB 231; test: Bone metastasis model, Example 2: treatment on Day 5, X-ray on Day 20; type: in vivo, NMRI nude mice; settings: 10 mg/kg i.v. on Day 5
Procedure: (§1) Human breast cancer MDA MB 231, injected to NMRI nude mice intracardially
30 NMRI nude mice received 500,000 of MDA-MB 231 breast cancer tumor cells intracardially (Day 0). The tumor cells metastasized to the bones and the growth of the tumor in the bones lead to bone destruction. In addition, the development of tumors near the tumor cell injection site is observed. After 5 days (Day 5), 15 of the 30 animals were treated with the Test Compound (10 mg/kg, i.v.). On Day 20 the experiment was terminated and the size and number of bone metastases were measured in each animal using the X-ray technology described in example 1. In addition, the numer of animals which developed tumors at the tumor cell injection site was determined.

[2] = tested on: Human breast cancer MDA MB 231; test: Bone metastasis model, Example 1: treatment on Day 10, X-ray on Day 22, survival; type: in vivo, NMRI nude mice
Procedure: as §1
Four days before tumor cells implantation, the baseline bone structure of the mice was determined by X-ray. 30 NMRI nude mice received 500,000 of MDA-MB 231 breast cancer tumor cells intracardially (Day 0). The tumor cells metastasized to the bones and the growth of the tumor in the bones lead to bone destruction. After the period of 10 days (Day 10), 10 of the […] animals were treated with the Test Compound (10 mg/kg, i.v.). The size and number of bone metastases were monitored 4 days before tumor cell implantation (baseline) and on Day 22 in each animal using the X-ray technology described below.
The mice underwent an anaesthesia with a mixture of Rompun (Rompun 2% Bayer) diluted with sodium chloride solution(Braun) by 1:10 and Ketavet ( Pharmacia GmbH 100 mg/ml), diluted by 1:5 with isotonic sodium chloride solution. For application of the narcotics, 1 ml sterile syringes (Codan Medical) and cannula (Braun Sterican, size 18) were used.
Once the tolerance stage was reached, the mice were attached to a 1 mm strong acrylic glass and additionally taped with a self-adhesive tape (sticky side facing the animal). The acrylic glass served as surface on which the animals underwent the X-ray.
At the console of the Mammomat (run by the software “Detector” (Ifg) on Windows NT platform), the standard setting of 35 kV and 400 mAs was adjusted. The setting was chosen in such a way to allow a good contrasting of the entire skeletal system and visibility of finest changes/aberrations of the bone structure and morphology. The resolution of the systems lies at 0,27 μm.
After initializing the Software the module “Zoomed Modus” was chosen for the detector and the ROIs 2-3 were selected in accordance with the previously selected positioning of the mouse. The regulator Image High was adjusted to 2000.
The actual measurements were started as soon as the Offset measurings and the reference measurings had been performed. The flexible table was brought into position (80 mm) and was advanced at a speed of 25,9 mm/sec. The final position of the table was chosen in such a way that the entire body of the mouse could be X-rayed all at once during the examination. The reference measuring was subtracted from each gained Image and was stored as a DICOM-file or as a BMP-file.
Analysis of the treatment was performed on Day 22 by evaluating twice the constructed exposures of the mice and searching for destructive processes of the skeletal system (focussing mainly on the long bones, spine and pelvis). The extend/area of the destructive processes/bone metastasis were determined with a special DICOM-Software (based on Microsoft Excel).

[3] = mean per animal, measured on Day 20 by X-ray, 10 mg/kg
[4] = 10 mg/kg i.v. on Day 10, result in words

C=CCC1C(=O)C(C)(C)C(O)CC(=O)OC(c2ccc3sc(C)nc3c2)CC2OC2(C)CCCC(C)C1O (stereo not shown) [Test Compound, 7,11-dihydroxy-3-(2-methyl-benzothiazol-5-yl)-10-(prop-2-en-1-yl)-8,8,12,16-tetramethyl-4,17-dioxabicyclo[14.1.0]heptadecane-5,9-dione]
Number of bone-metastases [1, 3]: 0.7 and 0.7 ± 0.9 | Size of bone-metastases [1, 3]: 0.1 mm^2 and 0.1 ± 0.2 mm^2 | Number of animals which developed tumors at the tumor cell injection site ([1]; of 15 animals, Day 20): 0 | Effect on bone metastasis (FIG. 1) [2, 4]: inhibited bone metastasis | Effect on life time (FIG. 1) [2, 4]: prolongation of life time was observed | Mean Survival Time ([2]; 10 mg/kg i.v., single application on Day 10, MDA-MB 231 cells intracardially): 31.6 days | Mean Bone Tumor Area ([2]; 10 mg/kg i.v., single treatment on Day 10, X-ray analysis on Day 22, MDA-MB 231 cells intracardially): 5.9 mm^2
